Source: ChEMBL document CHEMBL5625252, “Synthesis of peptidomimetics as antibiotic adjuvants for combination with aztreonam to combat MDR Pseudomonas aeruginosa” (Eur J Med Chem, 2023)
Converted amounts (≈) assume the structure as drawn.

Experiments:
Assay type in all cases: functional
[1] = tested on: Pseudomonas aeruginosa; test: Synergistic antibacterial activity against Pseudomonas aeruginosa PAO1 assessed as aztreonam MIC upto […] ug/ml incubated for 18 hrs by checkerboard method (reference value: 8 microg/ml)
[2] = tested on: Pseudomonas aeruginosa; test: Antibacterial activity against BL (+) Pseudomonas aeruginosa ATCC 27853 assessed as inhibition of bacterial growth incubated for 18 hrs by agar dilution method
[3] = tested on: Klebsiella pneumoniae; test: Antibacterial activity against NDM-1 (+) Klebsiella pneumoniae 2146 assessed as inhibition of bacterial growth incubated for 18 hrs by agar dilution method
[4] = tested on: Escherichia coli; test: Antibacterial activity against NDM-1 (+) Escherichia coli CDC 1001728 assessed as inhibition of bacterial growth incubated for 18 hrs by agar dilution method
[5] = tested on: Escherichia coli; test: Antibacterial activity against ESBLs (-) Escherichia coli ATCC 25922 assessed as inhibition of bacterial growth incubated for 18 hrs by agar dilution method
[6] = tested on: Escherichia coli; test: Antibacterial activity against ESBLs (+) Escherichia coli 16-1 assessed as inhibition of bacterial growth incubated for 18 hrs by agar dilution method
[7] = tested on: Klebsiella pneumoniae; test: Antibacterial activity against NDM-1 (+) Klebsiella pneumoniae 09-20 assessed as inhibition of bacterial growth incubated for 18 hrs by agar dilution method
[8] = tested on: Klebsiella pneumoniae; test: Antibacterial activity against ESBLs (+) Klebsiella pneumoniae ATCC 700603 assessed as inhibition of bacterial growth incubated for 18 hrs by agar dilution method
[9] = tested on: Pseudomonas aeruginosa; test: Antibacterial activity against Pseudomonas aeruginosa PAO1 assessed as inhibition of bacterial growth incubated for 18 hrs by agar dilution method
[10] = tested on: Escherichia coli; test: Antibacterial activity against mcr-1 (+) Escherichia coli 08-85 assessed as inhibition of bacterial growth incubated for 18 hrs by agar dilution method
[11] = tested on: Klebsiella pneumoniae; test: Antibacterial activity against ESBLs (+) Klebsiella pneumoniae 16-14 assessed as inhibition of bacterial growth incubated for 18 hrs by agar dilution method

Row | MIC [1] | MIC [2] | MIC [3] | MIC [4] | MIC [5] | MIC [6] | MIC [7] | MIC [8] | MIC [9] | MIC [10] | MIC [11] | SMILES
1 | 8 µg/mL |  |  |  |  |  |  |  |  |  |  | NCCC[C@H](NC(=O)C[C@H](N)c1ccccc1)C(=O)Nc1ccc2ccccc2c1
2 | 8 µg/mL |  |  |  |  |  |  |  |  |  |  | NCCC[C@H](NC(=O)CCc1ccc([N+](=O)[O-])cc1)C(=O)Nc1ccc2ccccc2c1
3 | 8 µg/mL |  |  |  |  |  |  |  |  |  |  | NCCC[C@H](NC(=O)CCc1ccc(F)cc1)C(=O)Nc1ccc2ccccc2c1
4 |  | > 64 µg/mL | > 64 µg/mL | 16 µg/mL (≈ 31.7 µM) | 1 µg/mL (≈ 1.98 µM) | 2 µg/mL (≈ 3.96 µM) | 32 µg/mL (≈ 63.4 µM) | > 64 µg/mL | > 64 µg/mL | > 64 µg/mL | > 64 µg/mL | C[C@H]1[C@H](NC(=O)/C(=N\OCC(=O)N2CCC(C(=O)O)C2)c2csc(N)n2)C(=O)N1S(=O)(=O)O (stereo partly specified)
5 |  | 64 µg/mL (≈ 142 µM) | 8 µg/mL (≈ 17.7 µM) |  | 1 µg/mL (≈ 2.22 µM) | 0.5 µg/mL (≈ 1.11 µM) | 1 µg/mL (≈ 2.22 µM) | 4 µg/mL (≈ 8.86 µM) | 64 µg/mL (≈ 142 µM) | 1 µg/mL (≈ 2.22 µM) | 0.5 µg/mL (≈ 1.11 µM) | C[C@@H](O/N=C(\C(=O)N[C@@H]1C(=O)N(OS(=O)(=O)O)C1(C)C)c1csc(N)n1)C(=O)O
6 |  | > 64 µg/mL | > 64 µg/mL | 32 µg/mL (≈ 66.7 µM) | 16 µg/mL (≈ 33.4 µM) | 8 µg/mL (≈ 16.7 µM) | 16 µg/mL (≈ 33.4 µM) | 64 µg/mL (≈ 133 µM) | > 64 µg/mL | 32 µg/mL (≈ 66.7 µM) | 16 µg/mL (≈ 33.4 µM) | CC(C)[C@@H](O/N=C(\C(=O)N[C@@H]1C(=O)N(OS(=O)(=O)O)C1(C)C)c1csc(N)n1)C(=O)O
7 |  | > 64 µg/mL | > 64 µg/mL | 16 µg/mL (≈ 30.9 µM) | 0.5 µg/mL (≈ 0.964 µM) | 2 µg/mL (≈ 3.86 µM) | 64 µg/mL (≈ 123 µM) | > 64 µg/mL | > 64 µg/mL | > 64 µg/mL | > 64 µg/mL | C[C@H]1[C@H](NC(=O)/C(=N\OCC(=O)N2CCCC(C(=O)O)C2)c2csc(N)n2)C(=O)N1S(=O)(=O)O (stereo partly specified)
8 |  | 32 µg/mL (≈ 60.1 µM) | > 64 µg/mL | 64 µg/mL (≈ 120 µM) | 2 µg/mL (≈ 3.76 µM) | 1 µg/mL (≈ 1.88 µM) | 16 µg/mL (≈ 30 µM) | > 64 µg/mL | 8 µg/mL (≈ 15 µM) | > 64 µg/mL | > 64 µg/mL | C[C@H]1[C@H](NC(=O)/C(=N\OC(C)(C)C(=O)N2CCC[C@@H]2C(=O)O)c2csc(N)n2)C(=O)N1S(=O)(=O)O
9 |  | > 64 µg/mL | > 64 µg/mL | 16 µg/mL (≈ 29.4 µM) | 1 µg/mL (≈ 1.84 µM) | 1 µg/mL (≈ 1.84 µM) | 8 µg/mL (≈ 14.7 µM) | > 64 µg/mL | > 64 µg/mL | > 64 µg/mL | 64 µg/mL (≈ 118 µM) | C[C@H]1[C@H](NC(=O)/C(=N\OCC(=O)N2C3CCCC3C[C@@H]2C(=O)O)c2csc(N)n2)C(=O)N1S(=O)(=O)O (stereo partly specified)
10 | 8 µg/mL |  |  |  |  |  |  |  |  |  |  | NCCC[C@H](NC(=O)c1ccc2ccccc2c1)C(=O)N[C@@H](CCc1ccccc1)C(=O)O
11 | 8 µg/mL |  |  |  |  |  |  |  |  |  |  | NCCC[C@H](NC(=O)Cc1ccc2ccccc2c1)C(=O)N[C@@H](Cc1ccccc1)C(=O)O
12 | 8 µg/mL |  |  |  |  |  |  |  |  |  |  | NCCC[C@H](NC(=O)c1ccc2ccccc2c1)C(=O)N[C@@H](Cc1ccccc1)C(N)=O
13 |  | > 64 µg/mL | 32 µg/mL (≈ 81.3 µM) | 16 µg/mL (≈ 40.7 µM) | 32 µg/mL (≈ 81.3 µM) | 16 µg/mL (≈ 40.7 µM) | 64 µg/mL (≈ 163 µM) | 32 µg/mL (≈ 81.3 µM) | > 64 µg/mL | > 64 µg/mL | > 64 µg/mL | C[C@H]1[C@H](NC(=O)/C(=N\OCCN)c2nsc(N)n2)C(=O)N1S(=O)(=O)O
14 | 2 µg/mL |  |  |  |  |  |  |  |  |  |  | NCCC[C@H](NC(=O)CCc1ccccc1)C(=O)Nc1ccc2ccccc2c1
15 |  | 64 µg/mL (≈ 165 µM) | > 64 µg/mL | 32 µg/mL (≈ 82.4 µM) | 8 µg/mL (≈ 20.6 µM) | 16 µg/mL (≈ 41.2 µM) | > 64 µg/mL | > 64 µg/mL | 16 µg/mL (≈ 41.2 µM) | > 64 µg/mL | > 64 µg/mL | C#CCO/N=C(\C(=O)N[C@@H]1C(=O)N(S(=O)(=O)O)[C@H]1C)c1nsc(N)n1

Row | SMILES | MIC [1] | MIC [2] | MIC [3] | MIC [4] | MIC [5] | MIC [6] | MIC [7] | MIC [8] | MIC [9] | MIC [10] | MIC [11]
16 | C[C@H]1COc2c(N3CCN(C)CC3)c(F)cc3c(=O)c(C(=O)O)cn1c23 [LEVOFLOXACIN ANHYDROUS] |  |  | 128 µg/mL (≈ 354 µM) | 8 µg/mL (≈ 22.1 µM) | ≤ 0.03 µg/mL |  | 16 µg/mL (≈ 44.3 µM) |  |  | 16 µg/mL (≈ 44.3 µM) | 
